In patent US12208130B2, “Treatment of women affected with polycystic ovary syndrome” (INSTITUT NATIONAL DE LA SANTE ET DE LA RECHERCHE MEDICALE …, priority 2017, dated 2025):
Where a SMILES comes first, the peptide text is derived from it. [ ]: non-standard residue; d: D form. dPhe(4-Cl) = N[C@H](Cc1ccc(Cl)cc1)C(=O)O; d2Nal = N[C@H](Cc1ccc2ccccc2c1)C(=O)O; dCit = NC(=O)NCCC[C@@H](N)C(=O)O; d3Pal = N[C@H](Cc1cccnc1)C(=O)O

System: pregnant mice
Assay: Dam body weight and fat mass, aborted embryos, litter size, pup weight at birth
Type: in vivo, mouse
Procedure: Dams were injected from E16.5 to E18.5 with either PBS (vehicle, n=8-11), AMH (n=10), AMH+GnRH antag (n=8-10). Body weight (grams: g); (FIG. 9A), subcutaneous fat mass (FIG. 9B) and perigonadal fat mass (FIG. 9C) was measured in dams at gestational day 19.5. (FIG. 9D) Dams were injected from E16.5 to E18.5 with either PBS (vehicle, n=9), AMH (n=9), AMH+GnRH antag (n=9). Dams were sacrificed one day later and the number of aborted embryos per litter was calculated. (FIGS. 9E, 9F) Dams were injected from E16.5 to E18.5 with either PBS (vehicle, n=3), AMH (n=3), AMH+GnRH antag (n=3). The number of pups per litter (FIG. 9E) and the weight of the pups at birth (FIG. 9F) was calculated for each treatment group (vehicle, n=12 pups; AMH, n=11 pups; AMH+GnRH antag, n=12 pups). Values are represented as the mean±s.e.m. […] Data were combined from three independent experiments. FIGS. 9A to 9F: left bar: vehicle; middle bar: AMH; right bar: AMH+GnRH antagonist.

Question: What does the source list for CC(=O)N[C@H](Cc1ccc2ccccc2c1)C(=O)N[C@H](Cc1ccc(Cl)cc1)C(=O)N[C@H](Cc1cccnc1)C(=O)N[C@@H](CO)C(=O)N[C@@H](Cc1ccc(O)cc1)C(=O)N[C@H](CCCNC(N)=O)C(=O)N[C@@H](CC(C)C)C(=O)N[C@@H](CCCNC(=N)N)C(=O)N1CCC[C@H]1C(=O)N[C@H](C)C(N)=O [Cetrorelix acetate, Ac-D-2Nal-D-Phe(4-Cl)-D-3Pal-Ser-Tyr-D-Cit-Leu-Arg-Pro-D-Ala-NH2] (Ac-[d2Nal][dPhe(4-Cl)][d3Pal]SY[dCit]LRP[dA]-NH2)?
Answer: body weights of pups at birth (dams i.p. AMH+GnRH antag E16.5-E18.5): did not observe any changes; body weight, subcutaneous fat mass or perigonadal fat mass of dams (dams injected 3 days with AMH+GnRH antag, E19.5): did not find any changes
